Experimental data taken from patent publication US10105437B2, “Epitopes related to coeliac disease” (BTG International Limited, priority 2004, dated 2018).

test system: PBMC from HLA-DQ2+ coeliac subjects; assay: Interferon gamma ELISPOT, secalin 20mer first round library after rye challenge; assay type: cell-based, human; conditions: 20mers pre-treated with tTG; day 6 PBMC; 14 subjects
Protocol: (§1) Peptides were initially dissolved in aqueous acetonitrile (50%). Peptides in aqueous acetonitrile were transferred to sterile 96-well plates and diluted in sterile PBS with 1 mM calcium (250 mcg/ml) and then incubated with tTG (25 mcg/ml) (Sigma T5398) for 6 h 37° C. and then stored frozen (−20° C.) until use.
(§2) IFNγ ELISpot assays (Mabtech, Sweden) were performed in 96-well plates (MAIP S-45, Millipore) in which each well contained 25 mcl of peptide solution and 100 mcl of PBMC (2-8×10^5/well) in RPMI containing 10% heat inactivated human AB serum. After development and drying, IFNγ ELISpot plates were assessed using the MAIP automated ELISpot plate counter. Data was then analysed according to a novel algorithm (Expectation Maximization: EM) to define and quantify interferon-gamma responses to 9mer sequences contained within the peptide library (see FIG. 3 and below). 9mer peptides were then rationalised according to an algorithm that assumes redundancy in T-cell recognition, the “IterativeCluster” algorithm (see FIG. 4 and below), by allowing groups of amino acids with similar chemical properties at any one position in the 9mer, or for glutamate to replace glutamine at any position (assuming deamidation may have occurred).
Secalin and hordein 20mer first round peptide libraries were assessed 3 days after completing rye (bread, 100 g/d for 3 days) or barley (boiled, 100 g/d for 3 days) challenge (“day 6” PBMC interferon gamma ELISPOT responses). Although iterative analysis using 2nd and 3rd round peptide libraries to define epitopes has not yet been performed, the 20mers pre-treated with tTG found to induce “potent” responses shared substantial structural similarity to the bioactive peptides identified after wheat challenge. […] The dominant (>70% maximal response) 20mer after rye challenge was usually […] (SEQ ID NO: 1769) (8/14 subjects), or occasionally […] (SEQ ID NO: 1770) (4/14), […] (SEQ ID NO: 1771) (1/14), […] (SEQ ID NO: 1772) (1/14) and/or […] (SEQ ID NO: 1773) (1/14). Additional peptides noted for greater than 40% maximal response in at least 1 subject include: […]

Row | Sequence | subjects in whom 20mer was dominant (>70% maximal response) after rye challenge
1 | PQQLFPLPQQPFPQPQQPFP (Description of Artificial Sequence: Synthetic gluten peptide) [rye secalin 20mer] | 8/14
2 | PQTQQPQQPFPQPQQPQQLF (Description of Artificial Sequence: Synthetic gluten peptide) [rye secalin 20mer] | 1/14
3 | QEQREGVQILLPQSHQQLVG (Description of Artificial Sequence: Synthetic gluten peptide) [rye secalin 20mer] | 1/14

same assay, conditions: after rye challenge; 14 subjects

Row | Sequence | number of subjects with > 70% maximal response | subjects with greater than 40% maximal response
4 | FPLQPQQPFPQQPEQIISQQ (Description of Artificial Sequence: Synthetic gluten peptide) [rye secalin 20mer] | 1 | 5/14
5 | FPQQPQQPFPQPQQQLPLQP (Description of Artificial Sequence: Synthetic gluten peptide) [rye secalin 20mer] | 2 | 3/14
6 | NMQVGPSGQVEWPQQQPLPQ (Description of Artificial Sequence: Synthetic gluten peptide) [rye secalin 20mer] | 1 | 2/14
7 | PQQPFPQQPEQIIPQQPQQP (Description of Artificial Sequence: Synthetic gluten peptide) [rye secalin 20mer] | 3 | 5/14
8 | PQQPQRPFAQQPEQIISQQP (Description of Artificial Sequence: Synthetic gluten peptide) [rye secalin 20mer] | 1 | 3/14

test system: PBMC from HLA-DQ2+ coeliac subjects; assay: Interferon gamma ELISPOT, hordein 20mer first round library after barley challenge; assay type: cell-based, human; set-up: key to individual peptide showing maximal response in a single individual (asterisk): *: an asterisk indicates the eight individual peptides showing maximal response in a single individual; conditions: not given
Protocol: as §1, §2
Secalin and hordein 20mer first round peptide libraries were assessed 3 days after completing rye (bread, 100 g/d for 3 days) or barley (boiled, 100 g/d for 3 days) challenge (“day 6” PBMC interferon gamma ELISPOT responses). Although iterative analysis using 2nd and 3rd round peptide libraries to define epitopes has not yet been performed, the 20mers pre-treated with tTG found to induce “potent” responses shared substantial structural similarity to the bioactive peptides identified after wheat challenge. […] The dominant (>70% maximal response) 20mer after rye challenge was usually […] (SEQ ID NO: 1769) (8/14 subjects), or occasionally […] (SEQ ID NO: 1770) (4/14), […] (SEQ ID NO: 1771) (1/14), […] (SEQ ID NO: 1772) (1/14) and/or […] (SEQ ID NO: 1773) (1/14). Additional peptides noted for greater than 40% maximal response in at least 1 subject include:
Typically, the dominant peptides after barley challenge included one of six peptide motifs, or were one of eight other individual 20mers “dominant” in only one of 17 subjects after barley challenge. The six motifs identified:
The barley hordein peptides showing at least 40% maximal peptide response in at least one subject include the following, wherein an asterisk indicates the eight individual peptides showing maximal response in a single individual: […]

Row | Sequence | individual peptide showing maximal response in a single individual (asterisk)
9 | PYLPEELSPQYQIPTPLQPQ (Description of Artificial Sequence: Synthetic gluten peptide) [barley hordein 20mer] | *
10 | QGSEQIIPQQPQQPFPLQPH (Description of Artificial Sequence: Synthetic gluten peptide) [barley hordein 20mer] | *
11 | QPQQPFPQPQQPIPYQPQQP (Description of Artificial Sequence: Synthetic gluten peptide) [barley hordein 20mer] | *
12 | VSPHPGQQTTVSPHQGQQTT (Description of Artificial Sequence: Synthetic gluten peptide) [barley hordein 20mer] | *
13 | WQPQQPFPQPQQPFPLQPQQ (Description of Artificial Sequence: Synthetic gluten peptide) [barley hordein 20mer] | *

same assay, conditions: 17 subjects

Row | Sequence | number of subjects with > 70% maximal response | subjects with at least 40% maximal peptide response
14 | PQQPVPQQPQPYPQQPQPFP (Description of Artificial Sequence: Synthetic gluten peptide) [barley hordein 20mer] | 1 | 5/17
15 | PVLSQQQPCTQDQTPLLQEQ (Description of Artificial Sequence: Synthetic gluten peptide) [barley hordein 20mer] | 1 | 1/17
16 | PWQPQQPFPQPQEPIPQQPQ (Description of Artificial Sequence: Synthetic gluten peptide) [barley hordein 20mer] | 1 | 1/17
17 | PYLPEELSPQYQIPTPLQPQ (Description of Artificial Sequence: Synthetic gluten peptide) [barley hordein 20mer] | 1 | 1/17
18 | QGSEQIIPQQPQQPFPLQPH (Description of Artificial Sequence: Synthetic gluten peptide) [barley hordein 20mer] | 3 | 7/17
19 | QIPYVHPSILQQLNPCKVFL (Description of Artificial Sequence: Synthetic gluten peptide) [barley hordein 20mer] | 1 | 1/17
20 | QKYPEQPQQPFPWQQPTIQL (Description of Artificial Sequence: Synthetic gluten peptide) [barley hordein 20mer] | 1 | 1/17
21 | QPFPQPQQPFPWQPQQPFPQ (Description of Artificial Sequence: Synthetic gluten peptide) [barley hordein 20mer] | 2 | 10/17
22 | QPFPTPQQFFPYLPQQTFPP (Description of Artificial Sequence: Synthetic gluten peptide) [barley hordein 20mer] | 1 | 4/17
23 | QPQPYPQQPQPYPQQPFQPQ (Description of Artificial Sequence: Synthetic gluten peptide) [barley hordein 20mer] | 2 | 7/17
24 | QPQQPFPQPQQPIPYQPQQP (Description of Artificial Sequence: Synthetic gluten peptide) [barley hordein 20mer] | 1 | 4/17
25 | QPQQPQPFPQQPVPQQPQPY (Description of Artificial Sequence: Synthetic gluten peptide) [barley hordein 20mer] | 2 | 5/17
26 | QQPFPLQPQQPFPQPQPFPQ (Description of Artificial Sequence: Synthetic gluten peptide) [barley hordein 20mer] | 0 | 1/17
27 | QQPFPQPQQPIPYQPQQPFN (Description of Artificial Sequence: Synthetic gluten peptide) [barley hordein 20mer] | 1 | 5/17
28 | QQPQPFSQQPIPQQPQPYPQ (Description of Artificial Sequence: Synthetic gluten peptide) [barley hordein 20mer] | 8 | 9/17
29 | QQQPFPQQPIPQQPQPYPQQ (Description of Artificial Sequence: Synthetic gluten peptide) [barley hordein 20mer] | 2 | 8/17
30 | QSQQQFPQPQQPFPQQPQQP (Description of Artificial Sequence: Synthetic gluten peptide) [barley hordein 20mer] | 0 | 1/17
31 | RQLPKYIIPQQPQQPFLLQP (Description of Artificial Sequence: Synthetic gluten peptide) [barley hordein 20mer] | 1 | 1/17
32 | SPLQPQQPFPQGSEQIIPQQ (Description of Artificial Sequence: Synthetic gluten peptide) [barley hordein 20mer] | 0 | 1/17
33 | VSPHPGQQTTVSPHQGQQTT (Description of Artificial Sequence: Synthetic gluten peptide) [barley hordein 20mer] | 1 | 1/17
34 | WQPQQPFPQPQQPFPLQPQQ (Description of Artificial Sequence: Synthetic gluten peptide) [barley hordein 20mer] | 5 | 9/17
35 | YPQQPQPFPQQPIPQQPQPY (Description of Artificial Sequence: Synthetic gluten peptide) [barley hordein 20mer] | 2 | 6/17
